Experimental data: patent US20190231748A1, “COMPOSITION FOR VAGINA AND ANTIMICROBIAL AGENT COMBINATION FOR USE IN PREPARING COMPOSITION FOR VAGINA” (Shenzhen Eulikan Biotechnology Co., Ltd., priority 2016, published 2019)

Experiments:
Assay type in all cases: cell-based
Lactobacillus jensenii = assay: Gram-stained smear of co-culture gel, Gram-positive rods (G+b); settings: for Smear G^+b: cultivated 32 hours
Description: (§1) 2.1 Experimental strains: one Lactococcus lactis strain and one Lactobacillus jensenii strain, both were clinical isolates.
(§2) The pH value was adjusted to 5.0.
(§3) 2.4 Experimental procedure: the test gel tubes containing different concentrations of antimicrobial agents, as shown in Tables 1 to 6 were inoculated with 100 microliters of Lactobacillus lactis suspension and 100 microliters of Lactobacillus jensenii suspension at the same time. The turbidities of both suspensions were 0.5 MCF. Then the tubes were cultivated at 37° C. and under 5 percent CO2 for 32 hours. Then the changes of the pH values of gels were tested. The gels were smeared, Gram stained, and microscopically examined for the morphology and quantity of bacteria.

[1] = tested on: nine strains of Candida albicans; assay: Growth of Candida in enrichment broth after 24 hours, clinical strains; settings: agent alone, broth pH 4.5, 37° C. 24 hours
Description: b. Enrichment broth: which contained 1 percent of yeast extract powder, 9 percent of sucrose, 0.025 percent of manganese sulfate (MnSO4.4H2O), 0.058 percent of magnesium sulfate (MgSO4.7H2O), and 0.9 percent of lactic acid, the pH value of the broth was adjusted to 4.5, and the enrichment broth was sterilized for later use;
(2) Experimental groups: the requirements of aseptic operation technique were strictly followed so to prepare the sterile test tubes;
a. sodium benzoate group: each test tube contained 5 milliliters enrichment broth, and was added in 0.025 percent (weight/volume) of sodium benzoate;
b. 2-phenylethanol group: each test tube contained 5 milliliters enrichment broth, and was added in 0.050 percent (weight/volume) of 2-phenylethanol;
c. sodium propionate group: each test tube contained 5 milliliters enrichment broth, and was added in 0.125 percent (weight/volume) of sodium propionate;
d. “a group of the combinations of sodium benzoate and sodium propionate”: each test tube contained 5 milliliters enrichment broth, and was added in 0.025 percent (weight/volume) of sodium benzoate and 0.125 percent (weight/volume) of sodium propionate;
e. “a group of the combinations of sodium benzoate and 2-phenylethanol”: each test tube contained 5 milliliters enrichment broth, and was added in 0.025 percent (weight/volume) of sodium benzoate and 0.050 percent (weight/volume) of 2-phenylethanol;
f. “a group of the combinations of sodium propionate and 2-phenylethanol”: each test tube contained 5 milliliters enrichment broth, and was added in 0.125 percent (weight/volume) of sodium propionate and 0.050 percent (weight/volume) of 2-phenylethanol;
g. “a group of the combinations of sodium benzoate, sodium propionate and 2-phenylethanol”: each test tube contained 5 milliliters enrichment broth, and was added in 0.025 percent (weight/volume) of sodium benzoate, 0.125 percent (weight/volume) of sodium propionate and 0.050 percent (weight/volume) of 2-phenylethanol;
h. positive control: the control tube of enrichment broth without adding in 2-phenylethanol, sodium benzoate, and sodium propionate; but inoculated the suspension of Candida albicans;
i. negative control: the control tube of enrichment broth without adding in 2-phenylethanol, sodium benzoate, and sodium propionate; and without inoculating Candida albicans;
The requirements for aseptic operation technique were strictly followed to prepare the suspension of organism. The colonies of each strain of Candida albicans organism were diluted with physiological saline respectively. The turbidities of the suspensions of Candida albicans organism were adjusted to 0.5 MCF (about 10^8 CFU/ml) by a turbidimeter. 1 milliliter of the 0.5 MCF organism suspension was added into 9 milliliters of enrichment broth. Each suspension was diluted for ten times to contain 10^7 CFU/ml of organisms.
the requirements for aseptic technique were strictly followed to take 100 microliters of the prepared organism suspension respectively and to add the suspension into the test tubes from a to h as well as the positive control tube. No organism suspension was added into the negative control tube i.
The above tubes were cultured in a biochemical incubator at 37° C. for 24 hours. Then the growth of Candida in each tube was observed and recorded.
Remark: “+” means the growth of organisms; “−” means no growth of organisms.

[2] = tested on: Lactococcus lactis and Lactobacillus jensenii; assay: pH of test gel after co-culture of Lactococcus lactis and Lactobacillus jensenii; settings: cultivated 32 hours
Description: as §1, §2, §3

Lactococcus lactis = assay: Gram-stained smear of co-culture gel, Gram-positive cocci (G+c); settings: for Smear G^+c: cultivated 32 hours
Description: as §1, §2, §3

With `OCCc1ccccc1` [2-phenylethanol] the “Smear G^+b” value (Lactobacillus jensenii; 0.15 % in test gel) was “G^+b+”, the “Smear G^+b” value (Lactobacillus jensenii; 0.2 % in test gel) was “G^+b+” and the “Smear G^+b” value (Lactobacillus jensenii; 0.25 % in test gel) was “G^+b+”. For the same compound, the “Smear G^+b” value (Lactobacillus jensenii; 0.3 % in test gel) was “G^+b+”, the “Smear G^+b” value (Lactobacillus jensenii; 0.35 % in test gel) was “G^+b+++” and the “inhibition effect on the growth of Lactobacillus” value (Lactobacillus jensenii; 0.35 to 0.45 percent) was “weaker inhibition effect”. For the same compound, the “Smear G^+b” value (Lactobacillus jensenii; 0.4 % in test gel) was “G^+b++”, the “Smear G^+b” value (Lactobacillus jensenii; 0.45 % in test gel) was “G^+b++” and the “Smear G^+b” value (Lactobacillus jensenii; 0.5 % in test gel) was “G^+b+”. For the same compound, the “number of the nine Candida albicans strains that grew” value ([1]; 0.050 percent (weight/volume)) was “seven”, the pH value ([2]; 0.15 % in test gel) was <3.8 and the pH value ([2]; 0.2 % in test gel) was <3.8. The pH value ([2]; 0.25 % in test gel) was <3.8, the pH value ([2]; 0.3 % in test gel) was <3.8 and the pH value ([2]; 0.35 % in test gel) was 3.8-4.1. It also gave a pH value ([2]; 0.4 % in test gel) of 4.4, a pH value ([2]; 0.45 % in test gel) of 4.6 and a pH value ([2]; 0.5 % in test gel) of 4.8. The “Smear G^+c” value (Lactococcus lactis; 0.15 % in test gel) was “G^+c+++”, the “Smear G^+c” value (Lactococcus lactis; 0.2 % in test gel) was “G^+c+++” and the “Smear G^+c” value (Lactococcus lactis; 0.25 % in test gel) was “G^+c+++”. The “Smear G^+c” value (Lactococcus lactis; 0.3 % in test gel) was “G^+c+++”, the “Smear G^+c” value (Lactococcus lactis; 0.35 % in test gel) was “G^+c+~+” and the “inhibition effect on the growth of Lactococcus lactis” value (Lactococcus lactis; 0.35 to 0.45 percent) was “stronger inhibition effect”. The “Smear G^+c” value (Lactococcus lactis; 0.4 % in test gel) was “G^+c+”.

With `CCC(=O)[O-].[Na+]` [sodium propionate] the “Smear G^+b” value (Lactobacillus jensenii; 0.1 % in test gel) was “G^+b+”, the “Smear G^+b” value (Lactobacillus jensenii; 0.2 % in test gel) was “G^+b+” and the “Smear G^+b” value (Lactobacillus jensenii; 0.3 % in test gel) was “G^+b+”. For the same compound, the “Smear G^+b” value (Lactobacillus jensenii; 0.4 % in test gel) was “G^+b++”, the “inhibition effect on the growth of Lactobacillus” value (Lactobacillus jensenii; 0.4 to 0.6 percent) was “weaker inhibition effect” and the “Smear G^+b” value (Lactobacillus jensenii; 0.5 % in test gel) was “G^+b++”. For the same compound, the “Smear G^+b” value (Lactobacillus jensenii; 0.6 % in test gel) was “G^+b++”, the “Smear G^+b” value (Lactobacillus jensenii; 0.7 % in test gel) was “G^+b+” and the “number of the nine Candida albicans strains that grew” value ([1]; 0.125 percent (weight/volume)) was “six”. The pH value ([2]; 0.1 % in test gel) was 3.8, the pH value ([2]; 0.2 % in test gel) was 3.8 and the pH value ([2]; 0.3 % in test gel) was 3.8. For the same compound, the pH value ([2]; 0.4 % in test gel) was 4.4, the pH value ([2]; 0.5 % in test gel) was 4.4-4.6 and the pH value ([2]; 0.6 % in test gel) was 4.6. For the same compound, the pH value ([2]; 0.7 % in test gel) was 4.8, the “Smear G^+c” value (Lactococcus lactis; 0.1 % in test gel) was “G^+c+++” and the “Smear G^+c” value (Lactococcus lactis; 0.2 % in test gel) was “G^+c+++”. The “Smear G^+c” value (Lactococcus lactis; 0.3 % in test gel) was “G^+c+++”, the “Smear G^+c” value (Lactococcus lactis; 0.4 % in test gel) was “G^+c+” and the “inhibition effect on the growth of Lactococcus lactis” value (Lactococcus lactis; 0.4 to 0.6 percent) was “stronger inhibition effect”. The “Smear G^+c” value (Lactococcus lactis; 0.5 % in test gel) was “G^+c+”.
